{"source": "patent US12053452B2", "about": "(priority 2021, dated 2024)", "origin": "cited, not measured here", "key": {"[1]": {"settings": "human urine, after racemic MDMA; cited from earlier work"}, "[2]": {"settings": "autistic adults, MDMA-assisted psychotherapy; cited from earlier work"}, "[3]": {"settings": "phase 3 trials, MDMA-assisted psychotherapy; cited from earlier work"}}}
{"molecule": "CNC(C)Cc1ccc2c(c1)OCO2", "note": "(racemic) [racemic MDMA, 1-(1,3-benzodioxol-5-yl)-N-methylpropan-2-amine]", "values": [{"measurement": "enantiomer with higher Cmax", "setting": "[1]", "value": "Higher R-enantiomer Cmax"}, {"measurement": "social anxiety symptoms", "setting": "[2]", "value": "rapid and durable improvement in social anxiety symptoms"}, {"measurement": "efficacy to treat Post Traumatic Stress Disorder (PTSD)", "setting": "[3]", "value": "demonstrated efficacy"}]}
